In PubChem BioAssay AID1985 (Southern Research Specialized Biocontainment Screening …, 2009) one finds IC50 data, which are given here for 100 molecules.

“And” between values parts separate entries of the source, which are not always exact repeats. Equal entries are not always repeated.

This test relates to S. Typhi PhoP-promoter GFP reporter, fluorescence, 4 h. The test is described as follows: PhoP regulon inhibitor project modified counter assay, GFP fluorescence readout, dose response (AID 1985).
Take `CCCNC(=O)c1cn(CC)c2cc(N3CCN(C)CC3)c(F)cc2c1=O`: the IC50 (as a rule, the concentration that inhibits the measured activity by half) was 28 µM.

As for `NC(=O)c1ccc(N=C2C(=O)Nc3ccc([N+](=O)[O-])cc32)cc1`, the IC50 was 31.8 µM.

Turning to `CNCCCC1Sc2ccccc2Oc2ccccc21` (stereo not given), the IC50 is 144 µM.

With `CCN1/C(=C/C(C)=C/c2sc3ccccc3[n+]2CC)Sc2ccccc21`, the IC50 was 12.6 µM.

As for `O=C(NNC(=S)NC(=O)c1ccccc1)c1ccc(O)cc1`, the IC50 was 71.1 µM.

On to `Nc1cc(Cl)c2nonc2c1[N+](=O)[O-]`, for which the IC50 was 19.6 µM.

On to `O=C(C[n+]1cccc(CNC(=O)c2ccc(OC(F)F)cc2)c1)Nc1ccc(SC(F)F)cc1`, for which the IC50 was 42.1 µM.

As to `Cc1cc(O)c2c(c1)C(=O)C13C(=C2O)C(=O)[C@H]2[C@@H](O)[C@@H]1[C@H]1[C@H](O)[C@@H]3C(=O)C3=C(O)c4c(O)cc(C)cc4C(=O)C312` (stereo not given in full), the concentration for half-maximal inhibition (IC50) is 19.1 µM.

As for `CN1C(=O)NC(c2ccc(O)cc2)C(C(=O)c2cccs2)C1(O)C(F)(F)F` (stereo not given), the IC50 is 19.9 µM.

For the molecule `C#CCOCCOCCOCCNc1nc(N2CCN(C(=O)CCCCCCCCCCNC(=O)[C@H](CCCCN)n3cc(C)nn3)CC2)nc(N2CCN(C(=O)CCCCCCCCCCNC(=O)[C@H](CCCN=C(N)N)n3cc(C[C@@H](C)CC)nn3)CC2)n1`, the IC50 is 31.9 µM.

Turning to `CCCCCCCNC(=O)C1(CC2CC(c3cccc(Br)c3)=NO2)CCNCC1` (stereo not given), the IC50 was 46 µM.

Turning to `Cc1ccc(NC(=S)Nc2ccc(S(=O)(=O)Nc3ncccn3)cc2)cc1Cl`, the IC50 was 101 µM.

Consider `NC1=C(Br)C(=O)c2ccccc2C1=O`, for which the concentration for half-maximal inhibition (IC50) was 20.1 µM.

`CCOc1cccc(CNCCc2c(C)[nH]c3ccc(OC(F)(F)F)cc23)c1O`: the 50% inhibitory concentration (IC50) was 76.2 µM.

In the case of `O=C(C[n+]1cc(-c2ccc(Cl)c(Cl)c2)n2c1CCC2)N1c2ccccc2Sc2ccccc21`, the 50% inhibitory concentration (IC50) is 78.2 µM.

Consider `CN(C)CCCNc1c2ccccc2nc2ccccc12`, for which the half-maximal inhibitory concentration (IC50) is 64.3 µM.

As for `COc1ccccc1Nc1c2ccccc2nc2ccccc12`, the 50% inhibitory concentration (IC50) was 80.8 µM.

For `CC1(CC(=O)N/N=C/c2cc([N+](=O)[O-])c(O)cc2O)OCCO1`, the IC50 was 38.4 µM.

`Cc1ccc(NC(=O)CSC(N)=O)cc1Cl`: the IC50 is 33.4 µM.

In the case of `O=C(Nc1ccc(Cl)cc1)Nc1ccc2c(c1)N1CCN=C1S2`, the concentration for half-maximal inhibition (IC50) was 57.1 µM.

Regarding `CN1CCN(CCCN2c3ccccc3Sc3ccc(Cl)cc32)CC1`, the IC50 was 132 µM and 79.2 µM.

With `Clc1ccc(OCCCNCc2ccccc2)c2ccccc12`, the IC50 is 33.8 µM.

Consider `COc1ccc(C(C[N+](=O)[O-])C2(c3ccc(OC)c(OC)c3)C(=O)c3ccccc3C2=O)cc1` (stereo not given), for which the concentration for half-maximal inhibition (IC50) is 8.15 µM.

For `Cc1nc(N)c(Cc2ccc(Cl)cc2Cl)c(N)n1`, the IC50 is 83.9 µM.

For `CCCCCCCCCCOC(=O)Cn1c(COc2ccccc2C)[n+](C)c2ccccc21`, the IC50 was 21.3 µM.

On to `O=C(NC1CCCCC1)c1ccc([N+](=O)[O-])o1`, for which the IC50 was 39.5 µM.

Regarding `CCCCCCCCCCCCCCCCn1cc[n+](C)c1`, the IC50 was 19.1 µM.

For the molecule `COC(=O)C1C(O)C(C)C(O)C(C)/C=C\C=C(/C)C(=O)Nc2c(C)c(OC(C)=O)c3c(c2O)C(=O)C(C)=C2OCOC(=C23)/C(C)=C/C(C)(O)C(O)C(C)C1O` (stereo not given), the 50% inhibitory concentration (IC50) is 24.4 µM.

`CCCCCCCCCCOC(=O)Cn1c(COc2ccccc2OC)[n+](C)c2ccccc21`: the 50% inhibitory concentration (IC50) was 25.4 µM.

Regarding `Cc1occc1C(=O)N/N=C/C=C/c1ccccc1`, the IC50 is 41.6 µM.

Take `c1ccc2cc(CSCc3nc4ccccc4[nH]3)ccc2c1`: the IC50 is 103 µM.

Consider `O=C(NC(=S)NNC(=O)c1cccs1)c1ccco1`, for which the IC50 is 39.7 µM.

`COc1c2ccccc2nc2ccccc12`: the half-inhibitory concentration (IC50) was 28.8 µM.

As to `O=c1[nH]c(-c2ccccn2)nc(C(F)(F)F)c1Br`, the IC50 is 66.7 µM.

On to `CC[n+]1c(/C=C/C=C/c2ccc(N(C)C)cc2)sc2ccccc21`, for which the IC50 was 35.7 µM.

Consider `O=Nc1ccc(O)c2ncccc12`, for which the IC50 was 24.6 µM.

With `O=c1c2ccccc2[nH]c2ccc(F)cc12`, the 50% inhibitory concentration (IC50) was 71.2 µM.

`O=C(CNC(=O)c1ccccc1)N/N=C/c1ccc([N+](=O)[O-])s1`: the IC50 was 19.5 µM.

For `Cc1ccc(-c2cc(-c3ccc(C)cc3)[n+](-c3ccccc3)c(-c3ccc(C)cc3)c2)cc1`, the concentration for half-maximal inhibition (IC50) was 34.5 µM.

As for `CN(C)CCCN1c2ccccc2Sc2ccccc21`, the IC50 is 103 µM.

Regarding `CN1CCC(OC(=O)c2cccc(Br)c2)CC1`, the half-inhibitory concentration (IC50) is 120 µM.

With `CC1=NOC(=O)/C1=C/c1ccc(O)cc1`, the 50% inhibitory concentration (IC50) is 117 µM.

On to `Fc1ccc(Nc2ccnc(Nc3ccc(F)cc3)n2)cc1`, for which the IC50 was 39.3 µM.

With `CCCCCCCCCCCCCCCC[N+](C)(C)CCN(Cc1ccc(OC)cc1)c1ncccn1`, the half-inhibitory concentration (IC50) is 23.9 µM.

As to `COc1cccc(CNCCc2c[nH]c3ccccc23)c1OCc1ccccc1`, the IC50 is 150 µM.

As to `COc1ccc(N2C(=O)CC(N3CC=C(c4ccccc4)CC3)C2=O)cc1` (stereo not given), the concentration for half-maximal inhibition (IC50) is 82.4 µM.

With `CCc1ccc(NC(=O)C[n+]2cc(-c3ccc(C)cc3)n3c2CCC3)cc1`, the IC50 is 69.8 µM.

Turning to `Cc1cc(NC2CCCCC2)nc(NCc2ccccc2)n1`, the concentration for half-maximal inhibition (IC50) is 77.9 µM.

Turning to `O=C1C(=O)c2ccccc2-c2ccccc21`, the half-inhibitory concentration (IC50) was 19 µM.

For the molecule `C=C1c2c(Cl)ccc(O)c2C(O)=C2C(=O)[C@]3(O)C(O)=C(C(N)=O)C(=O)[C@@H](N(C)C)[C@@H]3[C@@H](O)C12` (stereo not given in full), the IC50 is 0.924 µM.

In the case of `O=C(Cc1ccccc1)NNC(=S)NC(=O)c1cccs1`, the IC50 is 37.5 µM.

`c1ccc(Sc2cccc3ccccc23)c(CNC2=NCCN2)c1`: the IC50 was 80 µM.

On to `CCOC(=O)Cn1c(=N)n(CCOc2ccc3ccccc3c2)c2ccccc21`, for which the IC50 was 79.1 µM.

Turning to `NC(=O)SCC(=O)Nc1cccc(Cl)c1`, the IC50 is 29.9 µM.

Turning to `CCCCCc1ccc(OCCC[n+]2ccccc2)c(CCCCC)c1`, the IC50 is 82.7 µM.

Turning to `CCCCOc1ccc(CN=C(N)N)cc1Cl`, the concentration for half-maximal inhibition (IC50) was 103 µM.

On to `COc1ccc(OCc2n(CC(=O)OC3CC(C)CCC3C(C)C)c3ccccc3[n+]2C)cc1` (stereo not given), for which the IC50 was 80.6 µM.

For `NC1=NC[C@H](Cc2ccccc2)N1CCCCC1CCCCC1`, the half-maximal inhibitory concentration (IC50) is 36.1 µM.

As to `Nc1nc2ccccc2n1Cc1ccc(Cl)c(Cl)c1`, the half-maximal inhibitory concentration (IC50) is 54.6 µM.

`COc1cc(C(=O)O/N=C2\C=CC(=O)C(C)=C2)cc(OC)c1OC`: the IC50 is 131 µM.

Consider `CCN1CCN(Cc2ccc(NC(=O)c3cc(NC(=O)c4cc(-c5ccc(OC)cc5)n[nH]4)cc(OC)c3)cc2C(F)(F)F)CC1`, for which the IC50 was 102 µM.

Consider `Cc1c(N=Cc2cc(Br)cc(Br)c2O)cccc1C(=O)O`, for which the 50% inhibitory concentration (IC50) was 77.5 µM.

Consider `O=C(Nc1nc(-c2ccccn2)cs1)c1ccc(Br)s1`, for which the IC50 was 20.1 µM.

Turning to `COc1cc2c(cc1O)[C@H](Cc1ccc(Oc3cc(C[C@@H]4NCCc5cc(OC)c(O)cc54)ccc3O)cc1)NCC2`, the concentration for half-maximal inhibition (IC50) is 56.9 µM.

Take `CN1CCN(c2cc3c(cc2F)c(=O)c(C(=O)O)cn3CCF)CC1`: the IC50 was 0.444 µM.

For `O=C(O)c1cccc(N2C(=O)CSC2=S)c1`, the concentration for half-maximal inhibition (IC50) is 62.1 µM.

On to `N=c1c2c(n(Cc3ccc(Cl)c(Cl)c3)c3c1CCC3)CCCC2`, for which the concentration for half-maximal inhibition (IC50) is 80.1 µM.

As for `CNCCCN1c2ccccc2CCc2ccccc21`, the half-maximal inhibitory concentration (IC50) was 143 µM.

On to `Cc1cc(C)n2nc(S(=O)(=O)Nc3c(Cl)cccc3Cl)nc2n1`, for which the IC50 is 11.1 µM.

Take `Cc1cccc(C(=O)NNC(=S)NC(=O)c2cccs2)c1`: the half-maximal inhibitory concentration (IC50) is 50.1 µM.

With `Oc1ccc(N=Nc2ccc(Br)cc2)c(O)c1`, the IC50 was 87.8 µM.

As for `COc1ccc(Nc2c3ccccc3nc3ccccc23)cc1`, the IC50 is 53.8 µM.

Take `OC1(c2ccc(Cl)cc2)CCN(Cc2c[nH]c3ccccc23)CC1`: the IC50 was 101 µM.

In the case of `COC(=O)N/N=C/c1c[n+]([O-])c2ccccc2[n+]1[O-]`, the half-inhibitory concentration (IC50) was 101 µM.

Turning to `COc1ccccc1N1CCN(Cc2ccc(O)c3ncccc23)CC1`, the IC50 is 72 µM.

On to `CCCCCOc1ccc(C)cc1CN(CCCl)CCCl`, for which the 50% inhibitory concentration (IC50) was 138 µM.

As to `C#CCOCCOCCOCCNc1nc(N2CCN(C(=O)[C@H](Cc3ccc(O)cc3)n3cc([C@@H](N)CC(C)C)nn3)CC2)nc(N2CCN(C(=O)[C@H](Cc3ccc(O)cc3)n3cc([C@@H](N)CC(C)C)nn3)CC2)n1`, the IC50 was 112 µM.

Take `COc1ccc(NC(=O)c2cc(Br)c(Br)s2)cn1`: the IC50 is 23.3 µM.

In the case of `COc1ccc(/C=C/c2cc(-c3ccc(C)cc3)o[n+]2C)cc1`, the half-maximal inhibitory concentration (IC50) was 100 µM.

As for `Cc1cc(N=Nc2ccc(C)c(N=Nc3cc(C)c(N)cc3N)c2)c(N)cc1N`, the IC50 is 108 µM.

In the case of `CNC[C@@H](Cc1ccccc1)NC[C@@H](CC1CCCCC1)NCCCc1ccccc1`, the IC50 was 41.8 µM.

As for `O=C(N/N=C/c1ccc([N+](=O)[O-])s1)C(O)c1ccccc1` (stereo not given), the IC50 is 33.4 µM.

As for `Nc1nonc1C(=O)NCCN=Cc1cc(Cc2ccccc2)cc(Br)c1O`, the IC50 is 83.3 µM.

In the case of `Nc1c2ccccc2nc2ccccc12`, the 50% inhibitory concentration (IC50) is 48 µM.

`Fc1ccc(CCNCc2ccccc2Cl)cc1`: the concentration for half-maximal inhibition (IC50) was 69.7 µM.

For `O=c1oc2ccccc2nc1/C=C(\O)c1ccccc1`, the half-maximal inhibitory concentration (IC50) was 23.9 µM.

As to `CCCCCCCCCC[N+](C)(C)CC/C=C1/c2ccccc2Sc2ccc(Cl)cc21`, the half-inhibitory concentration (IC50) was 16.5 µM.

Turning to `O=C(N/N=C/c1cc(Cl)cc(Cl)c1O)c1ccncc1`, the concentration for half-maximal inhibition (IC50) was 20.2 µM.

For `CN(C)c1ccc2nc3ccc(=[N+](C)C)cc-3sc2c1`, the half-inhibitory concentration (IC50) is 22.7 µM.

For `O=C(N/N=C/c1ccccn1)c1ccc(Br)o1`, the IC50 is 50.1 µM.

As to `CC1(C)CC(=O)c2c(nc3ccccc3c2N)C1`, the 50% inhibitory concentration (IC50) was 143 µM.

For the molecule `CC(C(=O)NC1C=CS(=O)(=O)C1)N1C(=O)/C(=C/c2cccc(Cl)c2)SC1=S` (stereo not given), the IC50 was 33.6 µM.

For `CC(C)Cc1c(O)nc(SCC(=O)Nc2ccc3c(c2)CCC3)[nH]c1=O`, the half-maximal inhibitory concentration (IC50) is 95.4 µM.

As for `Cc1cccc(C(=O)NCCC(=O)Nc2ccc(F)c([N+](=O)[O-])c2)c1`, the half-maximal inhibitory concentration (IC50) was 144 µM.

For the molecule `CN(CC(=O)Nc1ccc(F)c(F)c1F)c1cnccn1`, the 50% inhibitory concentration (IC50) is 108 µM.

With `Cc1nc2c(=O)n(C)c(=O)nc-2n(C)n1`, the IC50 is 0.781 µM.

Turning to `O=CN/N=C/c1c(O)ccc2ccccc12`, the 50% inhibitory concentration (IC50) is 49 µM.

`OC(CNCCc1ccc(Cl)cc1Cl)COc1ccccc1` (stereo not given): the IC50 was 71.7 µM.

Turning to `COc1ccc(N2CC(C(=O)N/N=C/c3cc([N+](=O)[O-])ccc3O)CC2=O)cc1` (stereo not given), the concentration for half-maximal inhibition (IC50) is 81.2 µM.

Turning to `O=C(/C=C/c1ccc(F)cc1)NC(=S)NNC(=O)c1cnccn1`, the IC50 is 20.4 µM.
